The values below come from patent publication US5594001A, “Polycyclic systems, and derivatives thereof, as neurotransmitter release enhancers useful in the treatment of cognitive disorders” (The DuPont Merck Pharmaceutical Company, priority 1994, dated 1997).

What is called EC50 is the midpoint of the concentration-response curve. A low value points to higher potency in that assay.

Assay [1] deals with stimulus-induced acetylcholine release, slices from the parietal cortex. In words: Neurotransmitter (ACh) release assay, rat cortex slices, K+ stimulated. Type of assay: cell-based, rat (male Wistar). To be noted: for activation at 10 µM: Table II, % increase of drug-induced ACh release; for EC50: Table III. The procedure:
The neurotransmitter release activities of the compounds of this invention were determined using standard biochemical assay procedures for example, the neurotransmitter release assay as described below.
Neurotransmitter release assay.
The neurotransmitter (Ach) release activities of the compounds of this invention were determined by the assay as described by Nickolson, et al., Drug Development Research, (1990) 19: 285-300, a modification of the procedure described by Mulder, et al., Brain Res., (1974) 70: 372.
Male Wistar rats (Charies River) weighing 175-200 grams were used. Rats were decapitated and brains were dissected immediately. Slices (0.3 mm thick) from the parietal cortex were prepared (approximately 100 mg wet weight) and were incubated in 10 ml KrebsRinger medium (KR) containing NaCl (116 mM), KCl (3 mM), CaCl2 (1.3 mM), MgCl2 (1.2 mM), KH2 PO4 (1.2 mM), Na2 SO4 (1.2 mM), NaHCO3 (25.0 mM), and glucose (11.0 mM), to which was added 10 uCi ^3 H-choline (specific activity approximately 35 Ci/mM; NEN) and […] unlabeled choline to give a final concentration of one micromole. The brain preparations were incubated for 30 min. at 37° C. under a steady flow of 95% O2 /5% CO2. Under these conditions, part of the radioactive choline taken up by the preparation was converted into radioactive acetylcholine (ACh) by the cholinergic nerve endings stored in synaptic vesicles, and released upon depolarization by high potassium ion (K+) containing media.
After labelling of the ACh stores, the slices were washed three times with non-radioactive KR medium and transferred to a superfusion apparatus to measure the drug effects on ACh release. The superfusion apparatus consisted of 10 thermostated glass columns of 5 mm diameter that were provided with GF/F glass fiber filters to support the slices (approximately 10 mg tissue/column). Superfusion was carried out in KR-medium (0.3 ml/min.) containing […] hemicholine-3 (HC-3). The HC-3 prevents the reuptake of choline formed during the superfusion from phospholipids and released ACh, which would be converted into unlabeled ACh and released in preference to the preformed labeled ACh. The medium was delivered by a 25-channel peristaltic pump (Ismatec by Brinkman) and warmed to 37° C. in a thermostated stainless steel coil before entering the superfusion column. Each column was provided with a 4-way slider valve (Beckmann instruments) which allowed rapid change of low to high K+/KR-medium, and with two 10-channel 3-way valves that were used to change from drug-free to drug-containing low and high K+/KR-medium. After 15 min. of washout of non-specifically bound radioactivity, collection of 4 min. fractions was initiated. After three 4 min. collections, the original medium was changed to a KR-medium in which the KCl concentration had been increased to 25 mM (high K+ medium) (S1). Depolarization-induced stimulation of release by high K+/KR-medium lasted for 4 min. Drug free low and high K+/KR-media were then substituted by drug- and vehicle-containing low- and high-K+/KR-medium, and superfusion was continued for three 4 min. collections with low K+/KR-medium, one 4 min. collection with high K+/KR-medium (s2), and two 4 min. collections with low K+/KR-medium.
Drug was added to the media by 100-fold dilutions of appropriate concentrations of the drug (in 0.9% saline) with either low- or high-K+/KR-medium. For comparative purposes, linopirdine was also run.
All superfusion fractions were collected in liquid scintillation counting vials. After superfusion, the slices were removed from the superfusion columns and extracted with 1.0 ml of 0.1N HCl. Liquiscint (NEN) counting fluid (12 ml) was added to superfusion fractions and extracts, and the samples were counted in a Packard Tricarb Liquid Scintillation Counter. No corrections were made for quenching. […]

Assay [2] relates to memory disruption induced by hypoxia, male CD rats. Nature of the assay: Rat Passive Avoidance (PA) Hypoxia Induced Amnesia. Format: in vivo, rat (male CD). Particulars: Table II; SC; median retention latency vs vehicle.
Text: Rat Passive Avoidance (PA) Hypoxia Induced Amnesia:
Unfasted male CD rats, weighing between 165-210 grams, were trained in a PA apparatus using the following procedure: rats were placed in the clear side of the two compartment chamber and allowed 90 seconds to enter the dark compartment. Ten seconds after entering the dark chamber, a 3 second footshock (1.0 mA) was applied to the grid floor followed by an additional 10 second delay, and another 3 second footshock was applied. Retentions were tested 4 hours later. The rats were allowed 300 seconds to enter the dark compartment; time was taken. Memory disruption was induced by exposing the rats to a gas mixture containing 6.5% oxygen supplemented with nitrogen for 30 minutes before passive avoidance training. Doses of the test compound were administered (0.1 ml/100 g, SC.) relative to time of PA training.
The subject of assay [3] is ACh level in the rat hippocampus. Nature of the assay: Microdialysis, ACh levels in the rat hippocampus in vivo. Details: species or system rat (male Wistar). To be noted: Table IV. The method in brief: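 Male Wistar rats with dorsal hippocampal probes were perfused with aCSF containing 100 μM physostigmine, and 20-min dialysates were assayed by HPLC-EC. After 3 baseline samples, drug or vehicle was given and sampling continued 3 h. ACh peak heights are expressed as percent change over mean baseline.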

Where [4] appears, read: 5 mg/kg, vehicle water, NSP = no significant points.
Where [5] appears, read: 5 mg/kg, vehicle methocel, NSP = no significant points.

The structures appear in SMILES notation.

Molecule `O=C1N(c2ccccc2)c2ccccc2C1(Cc1ccncc1)Cc1ccncc1` [linopirdine, 3,3-bis-(4-pyridinylmethyl)-1-phenylindolin-2-one, reference compound] gave an activation at 10 µM in assay [1] of 408%. In assay [2], the “PA Hypoxia” value was “Active”. For the same molecule, the “AUC, Area % under the curve” value in assay [3] (5 mg/kg, vehicle water) was determined as 83 ± 73%; in assay [3] (10 mg/kg, vehicle methocel), 212 ± 61%; in assay [3] (10 mg/kg, vehicle water), 191 ± 68%; in assay [3] (20 mg/kg, vehicle methocel), 600 ± 71%; in assay [3] (20 mg/kg, vehicle water), 315 ± 108%. The “Peak, maximal % increase of ACh release over baseline” value (shortened to “Peak, maximal % increase”) in assay [3] (5 mg/kg, vehicle water) turned out to be 50 ± 16%; in assay [3] (10 mg/kg, vehicle methocel) it was 62 ± 15%; in assay [3] (10 mg/kg, vehicle water) it was 56 ± 7%; in assay [3] (20 mg/kg, vehicle methocel), 117 ± 36%; in assay [3] (20 mg/kg, vehicle water), 68 ± 26%. The “time of Peak after administration” value in assay [3] (5 mg/kg, vehicle water) was found to be 40 min; in assay [3] (10 mg/kg, vehicle methocel), 40 min; in assay [3] (10 mg/kg, vehicle water) it was 40 min; in assay [3] (20 mg/kg, vehicle methocel), 40 min; in assay [3] (20 mg/kg, vehicle water), 100 min. In addition, the “Duration, minutes of release above statistical significance” value was 20 min in assay [3] (setting [4]); 100 min in assay [3] (10 mg/kg, vehicle methocel); 60 min in assay [3] (10 mg/kg, vehicle water); 140 min in assay [3] (20 mg/kg, vehicle methocel); 100 min in assay [3] (20 mg/kg, vehicle water).
Molecule `c1ccc(Cn2ncc3c2-c2ccccc2C3(Cc2ccncc2)Cc2ccncc2)cc1` [Example 14, 1,4-Dihydro-1-(phenylmethyl)-4,4-bis(4-pyridinylmethyl)indeno[1,2-C]pyrazol] yielded an activation at 10 µM in assay [1] of 533%. Further, the “PA Hypoxia” value in assay [2] was “Active”.
In the case of `Fc1cc(CC2(Cc3ccnc(F)c3)c3cccnc3-c3cccnc32)ccn1` [Example 75, 9,9-Bis((2-fluoro-4-pyridinyl)methyl)-cyclopenta[1,2-b:3,4-b']dipyridine], in assay [1], a half-maximal effect (EC50) was put at 1210 nM. For the same molecule, in assay [3] (5 mg/kg, vehicle methocel), the “AUC, Area % under the curve” value was 302 ± 35%; the “Peak, maximal % increase” value worked out at 67 ± 12%; the “time of Peak after administration” value was found to be 20 min. Also, in assay [3] (setting [5]), the “Duration, minutes of release above statistical significance” value was 60 min.
Turning to `Fc1cc(CC2(Cc3ccnc(F)c3)c3cccnc3-c3ncccc32)ccn1` [Example 97, 5,5-Bis((2-fluoro-4-pyridinyl)methyl)-5H-cyclopenta[2,1-b:3,4-b']dipyridine], the response in assay [1] was half-maximal at 2620 nM (EC50). Also, in assay [3] (10 mg/kg, vehicle methocel), the “AUC, Area % under the curve” value is recorded as 649 ± 188%; the “Duration, minutes of release above statistical significance” value is 120 min; the “Peak, maximal % increase” value is reported as 102 ± 29%; the “time of Peak after administration” value stood at 100 min.
`Fc1cc(CC2(Cc3ccnc(F)c3)c3ccccc3-c3nc(-c4ccccc4)ncc32)ccn1` [Example 76, 5,5-Bis((2-fluoro-4-pyridinyl)methyl)-2-phenyl-5H-indeno[1,2-d]pyrimidine]: the midpoint of the response in assay [1], the EC50, lay at 660 nM. Further, in assay [3] (5 mg/kg, vehicle methocel), the “AUC, Area % under the curve” value is 96 ± 67%; the “Peak, maximal % increase” value was found to be 39 ± 25%; the “time of Peak after administration” value turned out to be 20 min. Also, the “Duration, minutes of release above statistical significance” value in assay [3] (setting [5]) was “NSP”.
`Fc1cc(CC2(Cc3ccncc3)c3ccccc3-c3ncccc32)ccn1` (stereo not drawn) [Example 62] returned an EC50 in assay [1] of 300 nM. In addition, in assay [3] (5 mg/kg, vehicle water), the “AUC, Area % under the curve” value came out at 160 ± 187%; the “Peak, maximal % increase” value turned out to be 47 ± 32%; the “time of Peak after administration” value worked out at 40 min. Moreover, the “Duration, minutes of release above statistical significance” value in assay [3] (setting [4]) is given as “NSP”. Also, in assay [3] (10 mg/kg, vehicle water), the “AUC, Area % under the curve” value worked out at 221 ± 85%; the “Duration, minutes of release above statistical significance” value is greater than 40 min; the “Peak, maximal % increase” value turned out to be 52 ± 10%; the “time of Peak after administration” value was determined as 20 min.
